The text below walks through data of patent publication US8034826B2, “Cycloalkane[B]azaindole antagonists of prostaglandin D2 receptors” (Panmira Pharmaceuticals, LLC, priority 2008, dated 2011).

Each structure is given as a SMILES string. Some results are limits rather than exact numbers.

A short description of series [1]: Plasma concentrations of the compound in mice of the allergic rhinitis model. It counts as in vivo. Particulars: female, BALB/c, mouse, 10 mg/kg as the sodium salt, oral. The protocol: The compounds ability to inhibit allergen-induced sneezing and nasal rubbing is assessed using a mouse model of allergic rhinitis. Methods were adapted from those detailed in Nakaya, M., et al. 2006, Laboratory Investigation, 86:917-926. Female BALB/c mice (20-25 g) are immunized by an intraperitoneal injection (i.p.) of 10 μg ovalbumin (OVA) complexed with alum in a volume 0.2 mL on days 0 and 7. Fourteen days later (day 21) mice are challenged intranasally with 20 μl of a 10 mg/mL solution of OVA. The challenge period occurs daily from days 21 to day 23. Mice (5-7/group) are randomly assigned to receive either compound or vehicle and are treated by oral gavage 1 hour prior to OVA challenge. The number of sneezes and nasal rubs are counted by an independent blinded observe during a period of 8 minutes immediately following OVA challenge on days 21, 23 and […]. A significant increase in allergen-induced sneezing and nasal rubbing occurs over the 3-day challenge period. Inhibition of this effect by select compounds is determined statistically using Graphpad prism.

The next series has as its target T1, human DP2 receptor (Homo sapiens, UniProt Q9Y5Y4).
T1 construct: expressed in transfected cells
T1 sequence (Q9Y5Y4 1-395): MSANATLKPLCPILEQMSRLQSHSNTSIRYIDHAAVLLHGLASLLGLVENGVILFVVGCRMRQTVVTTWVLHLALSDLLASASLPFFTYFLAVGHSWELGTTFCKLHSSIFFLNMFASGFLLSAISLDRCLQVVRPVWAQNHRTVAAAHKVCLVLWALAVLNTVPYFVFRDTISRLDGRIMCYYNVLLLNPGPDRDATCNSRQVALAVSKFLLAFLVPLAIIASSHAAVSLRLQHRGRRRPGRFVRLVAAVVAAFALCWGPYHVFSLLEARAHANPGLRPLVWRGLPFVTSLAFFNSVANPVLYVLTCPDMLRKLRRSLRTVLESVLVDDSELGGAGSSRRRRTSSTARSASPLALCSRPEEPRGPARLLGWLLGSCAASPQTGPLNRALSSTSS
Description: DP2/CRTH2 radioligand binding assay using [3H]PGD2. Particulars: membranes of HEK293 cells expressing recombinant human DP2, 1 nM [3H]PGD2; read-out: hDP2. On the procedure:
The ability of a compound to bind to the human DP2 receptor is assessed via a radioligand binding assay using [^3H]PGD2. HEK293 cells stably expressing recombinant human DP2 are resuspended in 10 mM Hepes, 7.4 containing 1 mM DTT, lysed and centrifuged at 75,000×g to pellet the membranes. The membranes are resuspended in 10 mM Hepes, 7.4 containing 1 mM DTT and 10% glycerol to approximately 5 mg protein/ml. Membranes (2-10 μg protein/well) are incubated in 96-well plates with 1 nM [^3H]PGD2 and test compound in Assay Buffer (50 mM Hepes, 10 mM MnCl2, 1 mM EDTA, plus or minus 0.2% human serum albumin, pH 7.4) for 60 minutes at room temperature. The reactions are terminated by rapid filtration through Whatman GF/C glass fibre filter plates. The filter plates were pre-soaked in 0.33% polyethylenimine for 30 minutes at room temperature then washed in Wash Buffer (50 mM Hepes, 0.5 M NaCl pH 7.4) prior to harvesting. After harvesting, the filter plates are washed 3 times with 1 ml cold Wash Buffer then dried. Scintillant is then added to the plates and the radioactivity retained on the filters is determined on a Packard TopCount (Perkin Elmer). Specific binding is determined as total radioactive binding minus non-specific binding in the presence of 10 μM PGD2. IC50s were determined using GraphPad prism analysis of drug titration curves.

Regarding `CN(C1CCc2c(c3ncccc3n2CC(=O)O)C1)S(=O)(=O)c1ccc(F)cc1` (racemic) [Compound 2, {8-[(4-fluoro-benzenesulfonyl)-methyl-amino]-6,7,8,9-tetrahydro-pyrido[3,2-b]indol-5-yl}-acetic acid], the Cmax in series [1] is 770 nM. Moreover, the concentration at 8 h in series [1] (at 8 hours, read-out: Plasma Cmin at 8 hours) worked out at 120 nM.
For the molecule `O=C(O)CCn1c2c(c3ccccc31)C[C@H](NS(=O)(=O)c1ccc(F)cc1)CC2` [Ramatroban], the IC50 on human DP2 receptor was > 100 nM.
